{
  "source": "patent US12582664B2",
  "about": "“Treatment of fragile x syndrome with cannabidiol” (Harmony Biosciences Management, Inc., priority 2017, dated 2026)",
  "key": {"[1]": {"system": "children and adolescents with autism spectrum disorder", "assay": "Aberrant Behavior Checklist-Community (ABC-C), BRIGHT study", "parameters": "species or system human", "conditions": "in vivo", "source_text": "Another test that can be used by clinicians to measure the severity of symptoms of ASD is the Aberrant Behavior Checklist-Community test (ABC-C). The original Aberrant Behavior Checklist (ABC) was designed to assess behavioral concerns of adults within institutional settings. The original ABC was later adapted to address patients who are not institutionalized and specifically to address subjects diagnosed with ASD. The Aberrant Behavior Checklist-Community (ABC-C) is used by clinicians, doctors, and researchers to access certain behaviors in non-institutionalized patients with ASD. […]\nAn exploratory open-label safety, tolerability and efficacy study of Zygel™ ZYN002 transdermal gel to 37 children and adolescents with autism spectrum disorder was conducted. […] ASD was confirmed by Diagnostic and Statistical Manual of Mental Disorders, 5th edition (DSM-5) diagnostic criteria to assess the safety and efficacy of ZYN002 in treating ASD-related behaviors as measured by a variety of efficacy assessments. […]\nSubjects were administered a 250 or 500 mg total daily dose, administered twice daily, of CBD in the form of ZYN002 CBD transdermal gel for 14 weeks. […] The trial evaluated multiple efficacy assessments, including the ABC-C, PRAS-ASD, Autism Parenting Stress Index, Autism Impact Measure (AIM), and Clinical Global Impression-Severity (CGI-S) and Improvement (CGI-I). […]"}, "[2]": {"system": "patients with FXS and comorbid ASD", "assay": "Pooled analysis of Week 12 change in ABC-C Irritability versus placebo", "format": "in vivo, human", "source_text": "The data collected from the studies presented herein, and other similar studies were pooled together and analyzed. […] The subjects had moderate to severe symptoms of ASD (ADOS-2, comparison score greater than, or equal to, 5). The data presented in Table 2 is the Week 12 change in ABC-C Irritability of all patients. In previous studies (such as presented in Example 1, Table 1) the data was enriched by removing the non-completers from the analysis and only presenting data from the completers."}},
  "data": [
    {"molecule": "C=C(C)C1CCC(C)=CC1c1c(O)cc(CCCCC)cc1O", "note": "(stereo not drawn) [CBD, 2-[3-methyl-6-(1-methylethenyl)-2-cyclohexen-1-yl]-5-pentyl-1,3-benzenediol]", "values": [
      {"measurement": "improvement in irritability, PRAS score >37 compared to ≤37", "setting": "[1]", "value": "twice as much improvement in irritability"},
      {"measurement": "improvement in irritability, ABC-CFXS Social Avoidance score >7 compared to ≤7", "setting": "[2]; ASD subjects", "value": "twice as much improvement in irritability"},
      {"measurement": "subjects showing an improvement in irritability, high social avoidance and/or anxiety scores compared to lesser scores", "setting": "[2]; in vivo", "value": "about twice as many subjects"}
    ]}
  ]
}
